The values below come from patent publication US11988734B2, “Method and application for measuring the intracellular water transmembrane efflux rate, and measurement method and system for magnetic resonance imaging biomarker of glioma” (ZHEJIANG UNIVERSITY, priority 2022, dated 2024).

SMILES strings stand for the structures. Values joined by “and” are separate entries in the source; they are usually repeats but may differ in a detail not shown here. Identical values can stand only once. “Also recorded” adds a separate entry of the source.

Test [1] has as its system C6 cells. Kind of test: Water exchange DCE-MRI measurement of intracellular water efflux rate constant kio in C6 cells. The class given is cell-based. The note with it: for kio: 50 μM TMZ, control 10.9±0.7; for decrease of kio vs control: TMZ. On the procedure: (§1) C6 cells were treated with TMZ (50 μM) and treated with 50 μM TMZ dissolved in 0.1% DMSO […] or 0.1% DMSO in complete culture medium. The magnetic resonance parameters kio and physiological information (cell morphology, AQP4 expression, cell activity and cell migration distance) were obtained on the third and seventh days of TMZ (50 μM) treatment.
(§2) In order to obtain the cell samples for MRI, U87MG (0.5˜1×10^5) or C6 (1˜2×10^6) cell lines were first washed with DPBS, disassociated by adding 1 mL of 0.25% Trypsin-EDTA solution to 60 mm dish and incubating for 0.5 to 1.0 min, and then resuspended with 2 mL PBS (or PBS supplemented with 5 mM Gadoteridol). After centrifuging the cell sample with relative centrifugal force of 150 g at 4° C. for 5 min, the sample was resuspended in a custom MR compatible glass sample tube (diameter 5 mm×length 20 mm) with 250˜300 μL PBS (or PBS+5 mM Gadoteridol). We then centrifuged the MR tubes at 300 g at 4° C. for 2 min before carrying out MRI. For AQP4 inhibition experiments, cells were pre-cultured with 6.4 μM TGN020 (Axon, CAS 51987-99-6) dissolved in PBS for 15 mins or 1 mM ouabain (Sigma, CAS 11018-89-6) for 15 mins, respectively; the PBS in the above steps was replaced with PBS+inhibitor.
The 0.5 T desktop MRI measurement system for cell culture in vitro (Pure Devices GmbH, Germany) includes: the MRI system installed on the anti-vibration platform and the autonomous nuclear magnetic tube containing live cell precipitation from the incubator, 5% CO2+95% O2 and PBS supernatant to ensure high survival rate, and the temperature monitoring optical fiber is installed. All MRI measurements were performed at room temperature (23.5+/−1° C.).
Water exchange DCE-MRI was performed with an inversion-recovery prepared turbo-spin-echo (IR-TSE) sequence and an extracellular Gd-based contrast agent, Gadoteridol (Prohance™ Bracco Diagnostics, Inc., Princeton, NJ). The following scan parameters were used in water exchange DCE-MRI: echo time (TE) 3 ms, turbo factor 16, FOV 12.8×12.8 mm^2, matrix size 32×32. Water exchange DCE-MRI was performed with two CA concentrations, 0 and 5 mM. At [CA]=5 mM, IR-TSE were measured with 13 IR delays (10 ms, 30 ms, 50 ms, 70 ms, 90 ms, 150 ms, 200 ms, 400 ms, 600 ms, 800 ms, 1 s, 5 s, 5 s) with repetition time TR varying together (TR=IR delay+5 s) and single repetition on each IR delay. At [CA]=0 mM, the longest IR delays were extended to 10 s with TR extended simultaneously (TR=IR delay+10 s) to guarantee full recovery of the longitudinal magnetization in each TR. The scan time for a single acquisition at [CA]=0 mM and 5 mM is 10 min and 5.5 min, respectively. Two acquisitions on [CA]=5 mM were acquired and averaged.
IR-TSE signal (M) at each IR delay was taken as the average signal of the cell pellet ROI. Then the signal was subtracted and normalized by the equilibrium magnetization (M0, taken as M with the longest IR delay). We define M as the normalized signal for future SS model analysis: M=(M−M0)/M0 (1)
A two-site-exchange (2SX) SS model was used here with details as described previously ^6. Briefly, the MR signal is considered as the sum of signals of two water sites—intra- and extracellular water, each site is assumed to have a similar longitude recovery rate R1, with pi and po as the mole fraction of water molecules in the intra- and extracellular space, respectively, and pi+po=1. Then the normalized IR-TSE signal M can be described with a biexponential function, M=psmexp(−tR1,sm)+(1−psm)exp(−tR1,lar) (2)
where R1,sm and R1,lar are the apparently smaller and larger R1, respectively, and psm, is the apparent fraction of MR signals showing R1,sm. The three parameters, R1,sm, R1,lar and psm, are determined by […] physical parameters including pi, the intracellular water efflux rate constant (kio), and the R1 of intracellular water (R1i), and the CA-dependent extracellular water R1 (R1o). […]

Test [2] deals with AQP4. As to the kind of experiment: AQP4 expression (immunofluorescence, fluorescence intensity rfu) in C6 cell line during TMZ treatment. The class given is cell-based. To be noted: C6 cells, 50 μM TMZ. As for the experimental part: as §1
After the MRI tests, the cell line sample was immediately fixed by 4% paraformaldehyde (PFA) at room temperature for 20 min, then stored in 0.5% PFA (4° C.). For immunofluorescence (IF) testing, protocols following: samples were (1) blocked with 10% goat serum (Beyotime, CO265) for one hour at room temperature; (2) incubated with primary antibody overnight at 4° C. and the secondary antibody at room temperature for 1 h; (3) stained with DAPI (4′,6-diamidino-2-phenylindole, Sigma-Aldrich, 1:1000) at room temperature for 5 min; and (4) washed three times with PBS. […] Data were collected from two fluorescence channels: one in which DAPI was characterized with excitation/emission wavelengths 375 nm/435 to 485 nm and the other with either […] (excitation/emission 470 nm/514 to 567 nm) or green (excitation/emission 525 nm/565 to 650 nm) channels. Fluorescence images were taken from either a Fluorescence Inversion Microscope System (cellSensV1.13, Olympus, Japan) or a confocal laser scanning microscope (fv1200, Olympus, Japan).

The test system of test [3] is C6 cells. Kind of test: Slow cycling cell (SCC) fraction by OG cell tracer in C6 cells. The class given is cell-based. The note with it: before TMZ 6.0 (±0.4)%. From the text:
The present invention uses the method of cell tracer to distinguish FCC and SCC. The OG (Oregon Green 488 Carboxylic Acid Diacetate, Succinimidyl Ester) and CTV (CellTrace™ Violet reagent, ThermoFisher scientific, Invitrogen C34557) were used to distinguish FCCs (low OG or CTV intensity) and SCCs (high OG or CTV intensity, e.g., the CTV intensity>10^4) in C6 cell lines and human glioma primary cell culture, respectively. Populations of FCCs and SCCs were identified and isolated in cell cultures based on their capacity to retain OG or CTV. Briefly, the cells were first suspended in PBS containing 25 μM OG and incubated in the dark at 37° C. for 10 min. After incubation, cell samples were washed in DMEM to remove residual dye and then returned to the culturing medium for three days until imaging. Before fluorescence imaging, samples were fixed in 4% PFA for 30 min and then stained with DAPI. The fraction of SCCs was defined as the fraction of OG positive cells in the DAPI positive cells. For primary human glioma primary cell cultures, the cells were stained with 5 μM CTV (the same methods as OG) for three days. Then, the cells fluorescence intensity statistics and counts were measured by a Fluorescence Activating Cell Sorter System (FACS) (LSRFortessa X-20, BD, USA).

Test [4] relates to U87MG cell line. As to the kind of experiment: Water exchange DCE-MRI measurement of kio in U87MG cell line with AQP4 inhibition. The class given is cell-based. To be noted: Phase I (adaptation period), 6.4 μM TGN020, n=6. On the procedure: as §2, with “For AQP4 inhibition experiments, cells were pre-cultured with 6.4 μM TGN020 (Axon, CAS 51987-99-6) dissolved in PBS for 15 mins or 1 mM ouabain (Sigma, CAS 11018-89-6) for 15 mins, respectively; the PBS in the above steps was replaced with PBS+inhibitor.” left out
Water exchange DCE-MRI was performed with an inversion-recovery prepared turbo-spin-echo (IR-TSE) sequence and an extracellular Gd-based contrast agent, Gadoteridol (Prohance™ Bracco Diagnostics, Inc., Princeton, NJ). […] At [CA]=5 mM, IR-TSE were measured with 13 IR delays (10 ms, 30 ms, 50 ms, 70 ms, 90 ms, 150 ms, 200 ms, 400 ms, 600 ms, 800 ms, 1 s, 5 s, 5 s) with repetition time TR varying together (TR=IR delay+5 s) and single repetition on each IR delay. […]
where R1,sm and R1,lar are the apparently smaller and larger R1, respectively, and psm, is the apparent fraction of MR signals showing R1,sm. […] For each condition (e.g., C6 at TMZ 0, 3, and 7 day), at least three samples were measured with IR-TSE at [CA]=0 mM as the baseline data. […]

The target of test [5] is T1, AQP4 (Rattus norvegicus, UniProt P47863).
T1 construct: C6 cell line was subcutaneously implanted into the right leg of Sprague Dawley (SD) rats to establish a glioma animal model; from tissue; host or cells: Subcutaneous C6 glioma tumour in Sprague Dawley rats (in vivo)
As to the kind of experiment: Pharmacological inhibition of AQP4 in subcutaneous rat glioma model (C6), in vivo water exchange DCE-MRI. As for the experimental part: All experimental protocols for animal studies were approved by the Animal Experimentation Committee of Zhejiang University. Adult (7˜8-week-old) male Sprague Dawley (SD) rats were obtained from the Laboratory Animal Center of Zhejiang University. During glioma cell introduction, rats were anesthetized with a mixture of 2% (v/v) isoflurane in air (R500IE, RWD Life Science Co., Ltd,), and then 100 μl PBS containing 5×10^6 C6 cells and 1% antibiotics (P/S) were slowly injected under the skin at the right leg. Seven to nine days after tumour implementation, the animals were taken for 7 T MRI test and the tumour was quickly removed after and fixed for IHC after MRI.
Here TGN020 was used to inhibit AQP4 in rat glioma model. For TGN020 group, each animal was treated with TGN020 (3 mg/kg, 4 ml/kg body weight) in the tail vein 15 minutes before water exchange DCE-MRI. In order to increase the solubility, before intravenous injection, TGN020 was repeatedly ultrasound and vortex at 37° C. to promote dissolution and dispersion in saline (0.9% NaCl). One day before TGN020 treatment, the same animal was treated with normal saline (4 ml/kg), and then water exchange DCE-MRI data collection was performed. In the control group, animals were treated with the same volume of normal saline on the first day and the second day. Here, the small volume infusion needs to be flushed after infusion to ensure the safety and treatment effect of rats.
In vivo water exchange DCE-MRI is achieved through clinical use of Gd-based CA (dimethylamine gadolinate, Guangzhou, China). In order to better estimate kio, the invention uses the method of two injections of CA, which improves the accuracy of kio estimation by 10 times compared with the traditional method of single injection of contrast agent. In addition, the steady-state multi-gradient echo (MGE) sequence is used to overcome the potential T2* artifacts caused by contrast agents. […] Finally, the fitting error of SS model is carefully analyzed to remove kio with large fitting error.

T1 sequence (P47863 whole entry): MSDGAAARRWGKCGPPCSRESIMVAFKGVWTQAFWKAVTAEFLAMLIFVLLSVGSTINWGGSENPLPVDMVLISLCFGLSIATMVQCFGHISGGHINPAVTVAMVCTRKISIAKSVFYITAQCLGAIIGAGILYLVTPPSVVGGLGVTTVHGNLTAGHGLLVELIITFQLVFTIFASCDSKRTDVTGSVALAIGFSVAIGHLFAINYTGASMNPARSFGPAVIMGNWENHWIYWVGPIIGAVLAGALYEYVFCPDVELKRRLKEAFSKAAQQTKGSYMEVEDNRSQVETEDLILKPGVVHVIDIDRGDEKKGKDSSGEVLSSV

For `Cn1nnc2c(C(N)=O)ncn2c1=O` [TMZ, temozolomide], the kio in test [1] (C6 cells, seventh day of treatment, n=7) came out at 5.8 ± 0.2 s⁻¹; in test [1] (C6 cells, third day of treatment, n=6), 6.7 ± 0.8 s⁻¹. Further, in test [1] (C6 cells, 7th day of TMZ treatment vs control), the “decrease of kio (absolute)” value was found to be 4.9 s⁻¹. For the same compound, the “decrease of kio vs control” value in test [1] (C6 cells, seventh day) is recorded as 45.5%; in test [1] (C6 cells, third day), 37.3%. Also, the “decrease of AQP4 expression level, fluorescence intensity (rfu)” value in test [2] (seventh day of treatment) came out at 85.9%; in test [2] (third day of treatment), 42.5%. For the same compound, the “proportion of SCC (OG+)” value in test [3] (seventh day of TMZ treatment) is reported as 28.9 (±0.3) %; in test [3] (third day of TMZ treatment) it was 16.0 (±0.1) %.
With `O=C(Nc1nncs1)c1cccnc1` [TGN020], the “effect of AQP4 inhibition on kio” value in test [4] is given as “will not lead to a significant decrease in kio; also recorded: will not lead to further reduction of kio”; in test [1] (C6 cells on 7th day of TMZ treatment, 6.4 μM TGN020) it was “could not further reduce kio; also recorded: did not lead to further reduction of kio”. Further, the “average kio of the whole tumor” value in test [5] (TGN020 3 mg/kg tail vein 15 min before DCE-MRI, n=9, saline 6.3±0.6, 3 mg/kg) is 5 ± 0.7 s⁻¹ and 3.5 ± 0.7 s⁻¹. Besides, the “decrease of average kio of the whole tumor” value in test [5] (TGN020 3 mg/kg vs saline in same animal, n=9, p=0.0246) was 43%. The “average K^trans of the whole tumor” value in test [5] (TGN020 3 mg/kg, saline 0.060±0.015) stood at 0.045 ± 0.024 min⁻¹.
